Source: patent publication US9617212B2, “Isoindolin-1-ones as macrophage migration inhibitory factor (MIF) inhibitors” (Controlled Chemicals, Inc., priority 2013, dated 2017)

target: T1, Human MIF (MIF tautomerase) (Homo sapiens, UniProt P14174); assay: MIF Tautomerase Inhibitory Assay with L-Dopachrome Methyl Ester; format: biochemical; conditions: IC50, relative potency class, MIF tautomerase inhibition; L-dopachrome methyl ester substrate, pH 7.34, no pre-incubation
T1 construct: purchased ProSpec
T1 sequence (P14174 2-115 limits assumed): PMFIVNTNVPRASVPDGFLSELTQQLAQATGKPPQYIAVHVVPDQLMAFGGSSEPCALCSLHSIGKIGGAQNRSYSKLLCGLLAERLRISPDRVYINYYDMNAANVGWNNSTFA
Procedure: MIF Tautomerase Inhibitory Assay with L-Dopachrome Methyl Ester
Assay Method (pH 7.34, 0.017-0.033% DMSO, 0.034% EtOH): A fresh stock solution of L-dopachrome methyl ester in MeOH was prepared at 55-65 mM through oxidation of L-3,4-dihydroxyphenylalanine methyl ester hydrochloride with sodium periodate according to the procedure described in WO9729635A1. MeOH was removed from 0.5 mL of the L-dopachrome methyl ester/MeOH solution (55-65 mM) under a stream of argon and the residue taken up in appropriate amount of water to prepare a substrate solution (7-10 mM). Active Human MIF (from ProSpec) ([…]) was dissolved in 675 μL 0.1% bovine serum albumin (BSA) in water, and the resultant MIF solution (1 volume) mixed with 55 volumes of Na2HPO4 buffer (50 mM, pH 7.34) to form a 265 ng/mL MIF working solution. MIF working solution (280 μL) or a no-MIF working solution (prepared by mixing 0.1% BSA (1 volume) with the aforementioned Na2HPO4 buffer (55 volumes)) was transferred to wells in a column of 8 wells on a 96-well plate in a Plate Reader (SPECTRAmax Plus 384, Molecular Devices), and 5 μL of H2O/DMSO (99/1) containing no inhibitor or an inhibitor (whose concentration was verified by HPLC). Without pre-mixing or pre-incubation, 10 μL freshly prepared L-dopachrome methyl ester/H2O solution (7-10 mM) was added to each well with a multi-pipet. The assay samples were mixed immediately by sucking up and expelling the contents of the wells three times with a multi-pipet. The absorbance (A1) at 475 nm was then recorded for each sample every 2 s for 3 min. After 5-6 min, the samples were monitored again for 3 min with a reading every two seconds at 475 nm (A2). It can be shown that when [substrate]<<Km, plots of Ln(A1−A2) versus time are linear with slopes m (Eq 1). IC50 values were estimated from Eq 2-5, the inhibitor concentration [I] in the assay mixture and values of m in the presence (mi), absence (mo) of the inhibitor, the value of m observed for the non-MIF blank (mn), the MIF concentration (e), and the specificity constant for the MIF catalyzed reaction (kcat/Km). Ln(A1−A2)=−mt (Eq 1) F=(mi−mn)/(mo−mn) (Eq 2) Wherein mo−mn=ekcat/Km (Eq 3) and mi−mn=(ekcat/Km)[…] (Eq 4) IC50=[I]F/(1−F) (Eq 5)
The compounds listed in Table 1, provided herein, were prepared via procedures identical or similar to those described in the Examples 1-85. The listed compounds were >95% pure by HPLC. Each listed compound yielded a mass spectrum consistent with its structure. Concentrations of MIF tautomerase inhibitors used in the assay were verified by HPLC and the extinction coefficients of the inhibitors. The designated relative potency of MIF tautomerase inhibitors is based on the IC50 as determined by the method described in Biochemical Assay as follows: A, IC50<1 μM; B, 1 μM≦IC50<5 μM; C, 5 μM≦IC50<10 μM; D, 10 μM≦IC50<50 μM; E, 50 μM≦IC50<200 μM.

SMILES | IC50
CC(OC(=O)Cc1ccccc1)[C@H]1CC[C@H](CN2Cc3cc(F)c(O)cc3C2=O)CC1 (stereo partly drawn) | < 1000 nM

same assay, conditions: relative potency class, MIF tautomerase inhibition; L-dopachrome methyl ester substrate, pH 7.34, no pre-incubation; read-out: IC50

SMILES | IC50
CC(Oc1cccc(OCCN)c1)[C@H]1CC[C@H](CN2Cc3ccc(O)c(F)c3C2=O)CC1 (stereo partly drawn) | < 1000 nM
CC(=O)N(C)CCOc1cccc(OC[C@H]2CC[C@H](CN3Cc4ccc(O)c(F)c4C3=O)CC2)c1 | < 1000 nM
CC(=O)N(C)CCOc1cccc(OC(C)[C@H]2CC[C@H](CN3Cc4ccc(O)c(F)c4C3=O)CC2)c1 (stereo partly drawn) | < 1000 nM
CC(Oc1cccc(OC[C@H](N)C(=O)O)c1)[C@H]1CC[C@H](CN2Cc3ccc(O)c(F)c3C2=O)CC1 (stereo partly drawn) | < 1000 nM
N[C@@H](COc1cccc(OC[C@H]2CC[C@H](CN3Cc4ccc(O)c(F)c4C3=O)CC2)c1)C(=O)O | < 1000 nM
CC(=O)N[C@@H](COc1cccc(OC[C@H]2CC[C@H](CN3Cc4ccc(O)c(F)c4C3=O)CC2)c1)C(=O)O | < 1000 nM
CC(=O)N[C@@H](COc1cccc(OC(C)[C@H]2CC[C@H](CN3Cc4ccc(O)c(F)c4C3=O)CC2)c1)C(=O)O (stereo partly drawn) | < 1000 nM
CC(Oc1cccc(OCCN2CCOCC2)c1)[C@H]1CC[C@H](CN2Cc3ccc(O)c(F)c3C2=O)CC1 (stereo partly drawn) | < 1000 nM
O=C1c2cc(O)ccc2CN1C[C@H]1CC[C@H](C(O)C2CCCCC2)CC1 (stereo partly drawn) | < 1000 nM
O=C1c2cc(O)ccc2CN1C[C@H]1CC[C@H](C(O)CC2CCCCC2)CC1 (stereo partly drawn) | < 1000 nM
CC(C)(O)[C@H]1CC[C@H](CN2Cc3ccc(O)c(F)c3C2=O)CC1 | < 1000 nM
CC(C)(O)[C@H]1CC[C@H](CN2Cc3ccc(O)cc3C2=O)CC1 | < 1000 nM
CC(O)[C@H]1CC[C@H](CN2Cc3cc(F)c(O)c(F)c3C2=O)CC1 (stereo partly drawn) | < 1000 nM
CCC(O)[C@H]1CC[C@H](CN2Cc3ccc(O)c(F)c3C2=O)CC1 (stereo partly drawn) | < 1000 nM
C[C@@H](O)[C@H]1CC[C@H](CN2Cc3ccc(O)c(F)c3C2=O)CC1 | < 1000 nM
C[C@H](O)[C@H]1CC[C@H](CN2Cc3ccc(O)c(F)c3C2=O)CC1 | < 1000 nM
CC(O)[C@H]1CC[C@H](CN2Cc3cc(F)c(O)cc3C2=O)CC1 (stereo partly drawn) | < 1000 nM
CC(O)[C@H]1CC[C@H](CN2Cc3ccc(O)c(F)c3C2=O)CC1 (stereo partly drawn) | < 1000 nM
O=C1c2c(ccc(O)c2F)CN1C[C@H]1CC[C@H](CO)CC1 | < 1000 nM
CC(O)[C@H]1CC[C@H](CN2Cc3ccc(O)cc3C2=O)CC1 (stereo partly drawn) | < 1000 nM
CC(=O)[C@H]1CC[C@H](CN2Cc3ccc(O)c(F)c3C2=O)CC1 | < 1000 nM
COC(=O)[C@@H](CO)NC(C)C1CCC(CN2Cc3ccc(O)c(F)c3C2=O)CC1 (stereo partly drawn) | < 1000 nM
CC(N[C@H](CO)C(=O)O)C1CCC(CN2Cc3ccc(O)c(F)c3C2=O)CC1 (stereo partly drawn) | < 1000 nM
COC(=O)[C@H](NC(C)C1CCC(CN2Cc3ccc(O)c(F)c3C2=O)CC1)C(C)C (stereo partly drawn) | < 1000 nM
CC(N[C@@H](C(=O)O)C(C)C)C1CCC(CN2Cc3ccc(O)c(F)c3C2=O)CC1 (stereo partly drawn) | < 1000 nM
COC(=O)[C@H](C)NC(C)C1CCC(CN2Cc3ccc(O)c(F)c3C2=O)CC1 (stereo partly drawn) | < 1000 nM
CC(N[C@H](C)C(=O)O)C1CCC(CN2Cc3ccc(O)c(F)c3C2=O)CC1 (stereo partly drawn) | < 1000 nM

SMILES | IC50
CC(N[C@@H](C)C(=O)O)C1CCC(CN2Cc3ccc(O)c(F)c3C2=O)CC1 (stereo partly drawn) | < 1000 nM
COC(=O)CCNC(C)C1CCC(CN2Cc3ccc(O)c(F)c3C2=O)CC1 (stereo not drawn) | < 1000 nM
CC(NCCC(=O)O)C1CCC(CN2Cc3ccc(O)c(F)c3C2=O)CC1 (stereo not drawn) | < 1000 nM
CNC(=O)CCNC(C)C1CCC(CN2Cc3ccc(O)c(F)c3C2=O)CC1 (stereo not drawn) | < 1000 nM
CC(NCC(=O)O)[C@H]1CC[C@H](CN2Cc3ccc(O)c(F)c3C2=O)CC1 (stereo partly drawn) | < 1000 nM
CC(NCC(N)=O)[C@H]1CC[C@H](CN2Cc3ccc(O)c(F)c3C2=O)CC1 (stereo partly drawn) | < 1000 nM
CC(NC(CO)CO)C1CCC(CN2Cc3ccc(O)c(F)c3C2=O)CC1 (stereo not drawn) | < 1000 nM
CC([C@H]1CC[C@H](CN2Cc3ccc(O)c(F)c3C2=O)CC1)N1CCOCC1 (stereo partly drawn) | < 1000 nM
CC([C@H]1CC[C@H](CN2Cc3ccc(O)cc3C2=O)CC1)N1CCOCC1 (stereo partly drawn) | < 1000 nM
CC(NCCO)C1CCC(CN2Cc3ccc(O)c(F)c3C2=O)CC1 (stereo not drawn) | < 1000 nM
CC(C)NC(C)[C@H]1CC[C@H](CN2Cc3cc(F)c(O)c(F)c3C2=O)CC1 (stereo partly drawn) | < 1000 nM
CC(=O)NC(C)[C@H]1CC[C@H](CN2Cc3ccc(O)c(F)c3C2=O)CC1 (stereo partly drawn) | < 1000 nM
CC(=O)NC[C@H]1CC[C@H](CN2Cc3ccc(O)c(F)c3C2=O)CC1 | < 1000 nM
CC(C)(N)[C@H]1CC[C@H](CN2Cc3ccc(O)c(F)c3C2=O)CC1 | < 1000 nM
CC(N)[C@H]1CC[C@H](CN2Cc3ccc(O)c(F)c3C2=O)CC1 (stereo partly drawn) | < 1000 nM
O=C1OCc2c(OC[C@H]3CC[C@H](CN4Cc5ccc(O)cc5C4=O)CC3)cccc21 | 1000 to 5000 nM
O=C1OCc2cc(OC[C@H]3CC[C@H](CN4Cc5ccc(O)cc5C4=O)CC3)ccc21 | 1000 to 5000 nM
O=C1c2cc(O)ccc2CN1C[C@H]1CC[C@H](COc2cc(O)cc(F)c2)CC1 | 1000 to 5000 nM
COc1cccc(OC(CCC2CCCCC2)[C@H]2CC[C@H](CN3Cc4ccc(O)cc4C3=O)CC2)c1 (stereo partly drawn) | 1000 to 5000 nM
O=C(OC1CCCCC1)c1ccc(CCN2Cc3ccc(O)cc3C2=O)cc1 | 1000 to 5000 nM
O=C1c2cc(O)ccc2CN1C[C@H]1CC[C@H](C(=O)OC2CCCCC2)CC1 | 1000 to 5000 nM
O=C1c2cc(O)ccc2CN1C[C@H]1CC[C@H](COC2CCCCC2)CC1 | 1000 to 5000 nM
CCC(C)OC(=O)[C@H]1CC[C@H](CN2Cc3ccc(O)cc3C2=O)CC1 (stereo partly drawn) | 1000 to 5000 nM
CN(C)C(=O)[C@H]1CC[C@H](CN2Cc3ccc(O)cc3C2=O)CC1 | 1000 to 5000 nM
CNC(=O)[C@H]1CC[C@H](CN2Cc3ccc(O)cc3C2=O)CC1 | 1000 to 5000 nM
COC(C)[C@H]1CC[C@H](CN2Cc3ccc(O)c(F)c3C2=O)CC1 (stereo partly drawn) | 1000 to 5000 nM
O=C1c2cc(O)ccc2CN1CCc1cccc(O)c1 | 1000 to 5000 nM

SMILES | IC50
O=C1c2cc(O)ccc2CN1C[C@H]1CC[C@H](CO)CC1 | 1000 to 5000 nM
O=C1c2cc(O)ccc2CN1CC1CCC(O)CC1 (stereo not drawn) | 1000 to 5000 nM
O=C1c2cc(O)ccc2CN1C[C@H]1CC[C@H](CN2CCOCC2)CC1 | 1000 to 5000 nM
CC(C)CNC(C)[C@H]1CC[C@H](CN2Cc3ccc(O)cc3C2=O)CC1 (stereo partly drawn) | 1000 to 5000 nM
CC(C)NC(C)[C@H]1CC[C@H](CN2Cc3ccc(O)cc3C2=O)CC1 (stereo partly drawn) | 1000 to 5000 nM
CCCNC(C)[C@H]1CC[C@H](CN2Cc3ccc(O)cc3C2=O)CC1 (stereo partly drawn) | 1000 to 5000 nM
O=C1c2cc(O)ccc2CN1C[C@H]1CC[C@H](C(=O)N2CCOCC2)CC1 | 1000 to 5000 nM
CC(N)[C@H]1CC[C@H](CN2Cc3cc(Cl)c(O)c(F)c3C2=O)CC1 (stereo partly drawn) | 1000 to 5000 nM
CC(N)[C@H]1CC[C@H](CN2Cc3cc(F)c(O)c(F)c3C2=O)CC1 (stereo partly drawn) | 1000 to 5000 nM
CC(N)[C@H]1CC[C@H](CN2Cc3ccc(O)cc3C2=O)CC1 (stereo partly drawn) | 1000 to 5000 nM
NC[C@H]1CC[C@H](CN2Cc3ccc(O)c(F)c3C2=O)CC1 | 1000 to 5000 nM
O=C1c2cc(O)ccc2CN1CC1CCCCCC1 | 1000 to 5000 nM
O=C1c2cc(O)ccc2CN1CC1CCCCC1 | 1000 to 5000 nM
CC1CCC(N2Cc3ccc(O)cc3C2=O)CC1 (stereo not drawn) | 1000 to 5000 nM
COC(=O)CCCCN1Cc2ccc(O)cc2C1=O | 1000 to 5000 nM
O=C1c2cc(O)ccc2CN1C[C@H]1CC[C@H](C(=O)OC2CCCC2)CC1 | 5000 to 10000 nM
O=C1c2cc(O)ccc2CN1C[C@H]1CC[C@H](C(=O)OC2CCCCCC2)CC1 | 5000 to 10000 nM
O=C1c2cc(O)ccc2CN1CCc1cccc(F)c1 | 5000 to 10000 nM
O=C1c2cc(O)ccc2CN1CCc1ccccc1 | 5000 to 10000 nM
O=C1c2cc(O)ccc2CN1CCC1CCCCC1 | 5000 to 10000 nM
O=C1c2cc(O)ccc2CN1C1CCCCC1 | 5000 to 10000 nM
O=C1c2cc(O)ccc2CN1C1CCCCCC1 | 5000 to 10000 nM
COC(=O)CCN1Cc2ccc(O)cc2C1=O | 5000 to 10000 nM
COC(=O)CCCN1Cc2ccc(O)cc2C1=O | 5000 to 10000 nM
O=C(OC1CCCCC1)c1ccc(CN2Cc3ccc(O)cc3C2=O)cc1 | 10000 to 50000 nM
O=C1c2cc(O)ccc2CN1[C@@H](CO)C1CCCCC1 | 10000 to 50000 nM
